Data set [1] deals with MDA-MB-231 xenograft tumors. The data set is described as follows: H&E and IHC analysis of orthotopic TNBC tumors. It is filed as in vivo, NSG mice. The settings on record: 12.5 mg/kg.
The next data set deals with MDA-MB-231 xenografts. The data set is described as follows: Orthotopic TNBC xenograft model, 18 days.
Data set [2] has as its system paclitaxel resistant PC-3 cells. The data set is described as follows: In vitro cytotoxicity after 96 hours. It is filed as cell-based.
The test system of data set [3] is MDA-MB-231 cells. The data set can be described thus: Experimental lung metastasis model (tail vein). The note with it: 10 mg/kg, 22 days of treatment.
Data set [4] concerns TNBC spontaneous lung metastasis. The data set can be described thus: Spontaneous lung metastasis in orthotopic TNBC model. The note with it: 12.5 mg/kg. It is filed as in vivo, mice.
For data set [5], the system named is MDA-MB-231 cells. The data set is described as follows: Scratch assay (cell migration). The class given is cell-based, human. The note with it: 16 nM. On the procedure: Cell migration was also analyzed by the scratch assay. […] The following day, a scratch was made in the cell monolayer by using a sterile 200-μl pipette tip. […] After 12 h, 24 h and 48 h, the wound width was determined and imaged with Evos Fl Imaging System (Life Technologies, Carlsbad, Calif.). The extent of wound closure was shown as the percentage of decrease of the original scratch width at each measured time point. Experiments were done in triplicate.

In data set [6] the test system is MDA-MB-468. The data set can be described thus: cells. The settings on record: Homo sapiens.
For data set [7], the system named is MDA-MB-468. The data set can be described thus: Colony formation assay. The class given is cell-based, human. The settings on record: 8 nM, MDA-MB-468 cells. The procedure: (§1) Colony formation assay. […] The medium of each group was renewed once a week. […] The morphology of colonies was captured under a microscope and colony area was quantified using ImageJ software (NIH, Bethesda, Md.). The drug treatment was performed in triplicate.

In another data set the test system is MDA-MB-231. The data set is described as follows: Colony formation assay. The settings on record: 8 nM. It is filed as cell-based, human. The procedure: as §1
A further data set deals with PC-3/TxR tumors. The data set is described as follows: Paclitaxel resistant prostate cancer xenograft. The settings on record: in vivo.
The next data set can be described thus: Brain penetration. It is filed as in vivo.
Setting [8] is: after 48 hours, MDA-MB-231 as printed.

By IC50 is commonly meant the point on the concentration scale where inhibition reaches its midpoint.

Structures are written as SMILES. Where two headings read alike, the source gives them in different places.

For the compound `CC(=O)O[C@H]1C(=O)[C@@]2(C)[C@H]([C@H](OC(=O)c3ccccc3)[C@]3(O)C[C@H](OC(=O)[C@H](O)[C@@H](NC(=O)c4ccccc4)c4ccccc4)C(C)=C1C3(C)C)[C@]1(OC(C)=O)CO[C@@H]1C[C@@H]2O` [paclitaxel], the “necrotic area of tumors” value in [1] amounted to 41.5%. In the data set on MDA-MB-231 xenografts (12.5 mg/kg), the “average final tumor weight” value is given as 0.38 g. Besides, the “body weight during treatment” value in the data set on MDA-MB-231 xenografts (18 days, paclitaxel 12.5 mg/kg) is given as “decreased mice body weight significantly”. Moreover, the “potency in paclitaxel resistant PC-3 cells” value in data set [2] was “lose potency”. The “body weights and physical activities of mice” value with MDA-MB-231 cells [3] is listed as “slightly decreased”. For the same compound, the “lung metastasis of TNBC” value in the data set with MDA-MB-231 cells [3] is reported as “significantly inhibited lung metastasis”. Besides, the “spontaneous lung metastasis, mice” value in data set [4] is “all eight mice had no metastasis”. For the same compound, the “average migration rate, scratch assay” value is recorded as 13.3% with MDA-MB-231 cells [5] (after 24 hours) and 14.5% with MDA-MB-231 cells [5] (setting [8]). Also, the concentration for half-maximal inhibition (IC50) amounted to 4.61 nM in the data set on MDA-MB-468 [6] (MDA-MB-468, read-out: IC50 (FIG. 37)) and 4.61 nM with MDA-MB-468 [6] (MDA-MB-468, read-out: IC50, cell viability). Further, the “reductions in colony formation” value with MDA-MB-468 [7] amounted to 7.4%. Also, the “relative percentage of colonies” value with MDA-MB-231 is on record as 27.5%.
Consider `CC(=O)O[C@@]12CO[C@@H]1C[C@H](O)[C@@]1(C)C(=O)[C@H](O)C3=C(C)[C@@H](OC(=O)[C@H](O)[C@@H](NC(=O)OC(C)(C)C)c4ccccc4)C[C@@](O)([C@@H](OC(=O)c4ccccc4)[C@H]21)C3(C)C` [docetaxel], for which the “potency in paclitaxel resistant PC-3 cells” value in data set [2] was “lose potency”. Further, the “efficacy in PC-3/TxR tumors” value with PC-3/TxR tumors is reported as “lack of efficacy”.
For the compound `COc1cc2c(c(OC)c1OC)-c1ccc(OC)c(=O)cc1[C@@H](NC(C)=O)CC2` [colchicine], the “average migration rate, scratch assay” value in the data set on MDA-MB-231 cells [5] (after 24 hours) is 67.3%; in the data set with MDA-MB-231 cells [5] (setting [8]), 15.8%. Besides, the “reductions in colony formation” value in the data set on MDA-MB-468 [7] is on record as 51%.
`COc1cc(C(=O)c2csc(Nc3ccc4[nH]ccc4c3)n2)cc(OC)c1OC` [Compound 55, (2-(1H-indol-5-ylamino)thiazol-4-yl)(3,4,5-trimethoxyphenyl)methanone]: the Kp at 4 h in “Brain penetration” (brain, 4 h after oral treatment, read-out: Brain/plasma concentration ratio) was roughly 0.2. Moreover, in “Brain penetration” (in vivo), the “Brain/plasma concentration ratios over time” value is listed as “remained relatively constant over time” and the brain penetration result is recorded as “high brain penetration”.

These data come from US20190389841A1, “COMPOUNDS FOR TREATMENT OF TRIPLE NEGATIVE BREAST CANCER AND OVARIAN CANCER” (UNIVERSITY OF TENNESSEE RESEARCH FOUNDATION, priority 2018, published 2019).
